Experiments:
[1] = biological target: T1, Adenosine receptor A1 (Rattus norvegicus) (UniProt P25099); assay: Displacement of [3H]R-PIA from adenosine A1 receptor in rat brain membranes at 100 uM; assay type: cell membranes
T1 sequence (whole entry): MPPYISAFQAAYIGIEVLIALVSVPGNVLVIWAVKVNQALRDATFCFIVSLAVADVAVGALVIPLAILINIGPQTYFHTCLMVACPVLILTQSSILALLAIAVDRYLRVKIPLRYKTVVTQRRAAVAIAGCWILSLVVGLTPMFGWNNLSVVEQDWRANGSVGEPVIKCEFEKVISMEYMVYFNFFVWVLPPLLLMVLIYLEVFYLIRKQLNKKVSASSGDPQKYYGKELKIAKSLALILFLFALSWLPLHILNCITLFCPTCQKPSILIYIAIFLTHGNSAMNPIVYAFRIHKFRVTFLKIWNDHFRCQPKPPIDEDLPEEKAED

[2] = biological target: T2, Adenosine receptor A2b (Homo sapiens) (UniProt P29275); assay: Displacement of [3H]- ZM-241385 from human adenosine A2B receptor expressed in HEK cell at 50 uM; assay type: cell-based; conditions: HEK293
T2 sequence (whole entry): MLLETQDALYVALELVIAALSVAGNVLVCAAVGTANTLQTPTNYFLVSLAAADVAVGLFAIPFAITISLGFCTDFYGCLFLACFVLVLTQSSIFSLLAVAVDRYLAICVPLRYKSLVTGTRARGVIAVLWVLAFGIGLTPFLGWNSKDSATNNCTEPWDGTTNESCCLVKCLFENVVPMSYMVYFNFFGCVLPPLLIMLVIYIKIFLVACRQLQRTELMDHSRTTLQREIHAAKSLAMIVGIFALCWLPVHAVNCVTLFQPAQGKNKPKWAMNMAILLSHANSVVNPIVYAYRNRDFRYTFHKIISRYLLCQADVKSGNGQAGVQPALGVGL

Adenosine receptor A3 [3] = biological target: T3, Adenosine receptor A3 (Homo sapiens, UniProt P0DMS8); assay: Displacement of [125I]- AB-MECA from human adenosine A3 receptor expressed in HEK cell in the absence of ADA; assay type: cell-based, HEK293
T3 sequence (P0DMS8 whole entry): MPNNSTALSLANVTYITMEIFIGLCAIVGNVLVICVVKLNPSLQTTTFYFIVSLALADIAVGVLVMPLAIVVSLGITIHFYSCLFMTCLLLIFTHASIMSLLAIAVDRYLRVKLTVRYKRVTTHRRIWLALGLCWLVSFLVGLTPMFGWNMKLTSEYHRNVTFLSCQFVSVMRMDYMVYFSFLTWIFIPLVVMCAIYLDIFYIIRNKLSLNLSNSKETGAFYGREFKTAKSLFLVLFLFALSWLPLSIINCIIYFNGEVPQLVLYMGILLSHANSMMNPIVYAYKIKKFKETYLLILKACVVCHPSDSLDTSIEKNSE

[4] = biological target: Adenosine receptors; A1 & A3 (Rattus norvegicus) (UniProt P25099+P28647); assay: Relative binding affinity for Adenosine A1 and A3 receptors; assay type: protein assay
Adenosine receptor A2a [5] = biological target: Adenosine receptor A2a (Homo sapiens, UniProt P29274); assay: Displacement of [3H]ZM241385 from human adenosine A2A receptor expressed in HEK cells.
Adenosine receptor A2a (Homo sapiens, UniProt P29274), sequence (P29274 whole entry): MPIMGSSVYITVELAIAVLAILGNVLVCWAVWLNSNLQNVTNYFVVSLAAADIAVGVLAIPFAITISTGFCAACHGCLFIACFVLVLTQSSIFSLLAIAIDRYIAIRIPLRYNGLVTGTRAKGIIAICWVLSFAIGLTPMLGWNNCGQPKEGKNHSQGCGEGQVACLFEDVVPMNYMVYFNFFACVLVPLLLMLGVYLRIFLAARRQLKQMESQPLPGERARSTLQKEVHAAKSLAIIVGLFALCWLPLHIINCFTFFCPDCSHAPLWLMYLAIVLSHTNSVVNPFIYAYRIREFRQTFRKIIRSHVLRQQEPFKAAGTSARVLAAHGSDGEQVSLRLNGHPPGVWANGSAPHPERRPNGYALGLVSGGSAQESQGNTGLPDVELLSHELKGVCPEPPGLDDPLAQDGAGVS

[6] = biological target: T4, Adenosine receptor A1 (Homo sapiens) (UniProt P30542); assay: Maximum stimulation against human adenosine A1 receptor
T4 sequence (whole entry): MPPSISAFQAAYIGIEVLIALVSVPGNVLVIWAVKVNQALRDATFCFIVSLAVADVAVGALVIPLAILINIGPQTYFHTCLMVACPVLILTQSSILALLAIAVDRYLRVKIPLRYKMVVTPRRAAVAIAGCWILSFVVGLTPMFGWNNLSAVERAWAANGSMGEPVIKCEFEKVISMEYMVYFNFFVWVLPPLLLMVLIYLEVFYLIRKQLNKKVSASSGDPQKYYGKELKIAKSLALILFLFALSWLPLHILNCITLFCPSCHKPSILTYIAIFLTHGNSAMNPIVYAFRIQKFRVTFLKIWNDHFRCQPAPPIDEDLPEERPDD

[7] = biological target: T1, Adenosine receptor A1 (Rattus norvegicus); assay: Maximum stimulation against adenosine A1 receptor of rat cerebral cortical membrane
[8] = biological target: T5, Adenosine receptor A3 (Homo sapiens) (UniProt P0DMS8); assay: Maximum stimulation against human adenosine A3 receptor
T5 sequence (whole entry): T3 sequence (P0DMS8 whole entry)

Adenosine receptor A3 [9] = biological target: T3, Adenosine receptor A3; assay: Stimulation of [35S]GTP-gamma-S, against human adenosine A3 receptor; assay type: functional
[10] = biological target: Adenosine receptor A2a (Rattus norvegicus) (UniProt P30543); assay: Displacement of [3H]-CGS- 21680 from adenosine A2A receptor of rat striatal membranes at 100 uM; assay type: cell membranes; conditions: Membrane
Adenosine receptor A2a (Rattus norvegicus), sequence (P30543 whole entry): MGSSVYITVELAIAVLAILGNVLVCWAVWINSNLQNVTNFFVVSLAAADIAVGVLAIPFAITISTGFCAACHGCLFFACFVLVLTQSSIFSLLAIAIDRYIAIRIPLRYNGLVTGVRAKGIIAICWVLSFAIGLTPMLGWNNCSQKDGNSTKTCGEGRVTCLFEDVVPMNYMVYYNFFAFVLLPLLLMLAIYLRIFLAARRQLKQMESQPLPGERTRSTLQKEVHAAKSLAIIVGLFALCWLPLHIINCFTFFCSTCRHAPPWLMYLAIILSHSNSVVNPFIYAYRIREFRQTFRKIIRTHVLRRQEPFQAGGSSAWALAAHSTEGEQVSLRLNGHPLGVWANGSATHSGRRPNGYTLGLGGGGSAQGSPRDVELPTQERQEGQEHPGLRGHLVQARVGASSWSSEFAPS

Adenosine receptor A1 [11] = biological target: T6, Adenosine receptor A1 (Rattus norvegicus, UniProt P25099)
T6 sequence (P25099 whole entry): T1 sequence (whole entry)

Adenosine receptor A1 [12] = biological target: T7, Adenosine receptor A1 (Homo sapiens, UniProt P30542); assay: Stimulation of [35S]GTP-gamma-S, binding to human adenosine A1 receptor; assay type: functional
T7 sequence (P30542 whole entry): T4 sequence (whole entry)

Adenosine receptor A3 [13] = biological target: T3, Adenosine receptor A3; assay: Displacement of [125I]- AB-MECA from human adenosine A3 receptor expressed in HEK cells; assay type: cell-based, HEK293
[14] = biological target: T2, Adenosine receptor A2b (Homo sapiens); assay: Displacement of [3H]ZM241,385 binding to human adenosine A2B receptor expressed in HEK cells at 100 uM; assay type: cell-based; conditions: HEK293
Adenosine receptor A1 [15] = biological target: T6, Adenosine receptor A1; remark: listed apart in the source
Adenosine receptor A2a [16] = biological target: Adenosine receptor A2a (Rattus norvegicus, UniProt P30543)
Adenosine receptor A2a (Rattus norvegicus, UniProt P30543), sequence (P30543 whole entry): as above

Adenosine receptor A2b = biological target: T8, Adenosine receptor A2b (Homo sapiens, UniProt P29275); assay: biochemical
T8 sequence (P29275 whole entry): T2 sequence (whole entry)

Adenosine receptor A3 [17] = biological target: T9, Adenosine receptor A3 (Rattus norvegicus, UniProt P28647); assay: Displacement of [125I]- AB-MECA from rat adenosine A3 receptor expressed in CHO cells; assay type: cell-based
T9 sequence (P28647 whole entry): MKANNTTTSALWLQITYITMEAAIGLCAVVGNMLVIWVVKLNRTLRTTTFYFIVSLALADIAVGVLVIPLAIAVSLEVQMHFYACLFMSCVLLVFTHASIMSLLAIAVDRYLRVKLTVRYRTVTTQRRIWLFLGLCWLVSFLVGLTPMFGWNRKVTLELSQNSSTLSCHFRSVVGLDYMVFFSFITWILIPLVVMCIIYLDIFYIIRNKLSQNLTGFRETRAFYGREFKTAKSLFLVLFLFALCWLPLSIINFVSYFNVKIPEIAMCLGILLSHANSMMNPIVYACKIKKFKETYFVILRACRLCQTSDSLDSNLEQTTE

How did the Displacement [1] turn out when `Nc1ncnc2c1ncn2[C@@]12C[C@H]1[C@H](CO)[C@@H](O)[C@H]2O` was run?
Its Displacement is 15%.

What about the Displacement [2] of the same compound?
The Displacement was 20%.

What about the Ki (Adenosine receptor A3 [3]) of the same compound?
Its Ki is 62500 nM.

What about the Ratio [4] of the same compound?
Its Ratio is over 1.

And the Ki (Adenosine receptor A2a [5])?
The Ki was over 100000 nM.

How did the Max [6] turn out when `OC[C@H]1O[C@@H](n2cnc3c(NCc4cccc(I)c4)ncnc32)[C@H](O)[C@@H]1O` was run?
The Max was 91%.

And the Max [7]?
The Max was 95%.

What about the Max [8] of the same compound?
Its Max is 100%.

`OC[C@H]1C[C@@H](n2cnc3c(NCc4cccc(I)c4)ncnc32)[C@H](O)[C@@H]1O` was tested. Which EC50 (Adenosine receptor A3 [9]) did it give?
The EC50 was over 10000 nM.

What about the Displacement [10] of the same compound?
Its Displacement is under 10%.

What about the Ki (Adenosine receptor A1 [11]) of the same compound?
Its Ki is 25900 nM.

And the EC50 (Adenosine receptor A1 [12])?
The EC50 was over 10000 nM.

And the Max [6]?
The Max was 5%.

What about the Ratio [4] of the same compound?
The Ratio was 13.

And the Ki (Adenosine receptor A3 [13])?
The Ki was 1960 nM.

What about the Max [8] of the same compound?
Its Max is 14%.

Which results are given for `Nc1ncnc2c1ncn2[C@H]1[C@H](O)[C@H](O)[C@]2(CO)C[C@H]12`?
Displacement [2]: 35%; Ki (Adenosine receptor A1 [11]): 1680 nM; Ki (Adenosine receptor A3 [3]): 404 nM; Ratio [4]: 4.2; Ki (Adenosine receptor A2a [5]): 22500 nM

What does the source list for `OC[C@@]12C[C@@H]1[C@@H](n1cnc3c(NC4CCCC4)nc(Cl)nc31)[C@H](O)[C@@H]2O`?
EC50 (Adenosine receptor A3 [9]): > 10000 nM; Displacement [14]: 27%; Ki (Adenosine receptor A1 [11]): 8.76 nM; EC50 (Adenosine receptor A1 [12]): 31.2 nM; Max [6]: 97%; EC50 (Adenosine receptor A1 [15]): 145 nM; Ratio [4]: 0.019; Ki (Adenosine receptor A3 [13]): 466 nM; Ki (Adenosine receptor A2a [16]): 3390 nM; Max [7]: 96%; Max [8]: 15%

Which results are given for `OC[C@@]12C[C@@H]1[C@@H](n1cnc3c(NCc4cccc(I)c4)ncnc31)[C@H](O)[C@@H]2O`?
Ki (Adenosine receptor A2b): 12100 nM; EC50 (Adenosine receptor A3 [9]): 0.7 nM; EC50 (Adenosine receptor A1 [12]): 218 nM; Max [6]: 86%; Ki (Adenosine receptor A3 [13]): 4.13 nM; Ki (Adenosine receptor A2a [16]): 601 nM; Max [8]: 45.3%

What does the source list for `OC[C@@]12C[C@@H]1[C@@H](n1cnc3c(NCc4cccc(I)c4)nc(Cl)nc31)[C@H](O)[C@@H]2O`?
Ki (Adenosine receptor A2b): 41000 nM; EC50 (Adenosine receptor A3 [9]): 0.67 nM; Ki (Adenosine receptor A1 [11]): 141 nM; EC50 (Adenosine receptor A1 [12]): 142 nM; Max [6]: 91%; EC50 (Adenosine receptor A1 [15]): 684 nM; Ratio [4]: 63; Ki (Adenosine receptor A2a [16]): 732 nM; Max [7]: 48%; Max [8]: 22%

`Nc1ncnc2c1ncn2[C@@H]1O[C@H](CO)[C@@H](O)[C@H]1O` [ADENOSINE] was tested. Which Ki (Adenosine receptor A3 [17]) did it give?
Its Ki is 1000 nM.

With `OC[C@@]12C[C@@H]1[C@@H](n1cnc3c(NC4CCCC4)ncnc31)[C@H](O)[C@@H]2O` as the compound, how does the Ki (Adenosine receptor A2b) read?
Its Ki is 139000 nM.

And the EC50 (Adenosine receptor A3 [9])?
Its EC50 is over 10000 nM.

What about the Ki (Adenosine receptor A1 [11]) of the same compound?
The Ki was 5.06 nM.

What about the EC50 (Adenosine receptor A1 [12]) of the same compound?
The EC50 was 21.5 nM.

And the Max [6]?
The Max was 102%.

And the EC50 (Adenosine receptor A1 [15])?
Its EC50 is 100 nM.

What about the Ratio [4] of the same compound?
The Ratio was 0.03.

And the Ki (Adenosine receptor A3 [13])?
The Ki was 170 nM.

And the Ki (Adenosine receptor A2a [16])?
Its Ki is 6800 nM.

What about the Max [7] of the same compound?
The Max was 75%.

And the Max [8]?
The Max was 14%.

For `OC[C@H]1O[C@@H](n2cnc3c(NC4CCCC4)ncnc32)[C@H](O)[C@@H]1O` [N6-CYCLOPENTYLADENOSINE], which Max [6] is on record?
Its Max is 100%.

And the Ki (Adenosine receptor A2a [16])?
The Ki was 857 nM.

And the Max [8]?
Its Max is 100%.

`CCNC(=O)[C@H]1O[C@@H](n2cnc3c(N)ncnc32)[C@H](O)[C@@H]1O` was tested. Which Max [8] did it give?
Its Max is 100%.

From ChEMBL document CHEMBL1133730 (J Med Chem, 2000)
